Assays:
blackgrass = assay: Test B postemergence herbicide test; assay type: in vivo, Alopecurus myosuroides; conditions: scale 0 (no effect) to 100 (complete control)
How it was run: (§1)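 Visual ratings, 0 (no effect) to 100 (complete control), made versus controls after 13–15 d greenhouse. Paddy plants treated at 2-leaf stage; postemergence plants at 1- to 4-leaf stage, 2–18 cm tall.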

Surinam grass = assay: Test B pre-/postemergence herbicide test; assay type: in vivo, Urochloa decumbens
How it was run: (§2)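 Seeds were planted and treated preemergence with compounds formulated in a non-phytotoxic solvent mixture containing surfactant, while plants at the 1- to 4-leaf stage (2 to 18 cm) received postemergence sprays. Flooded paddy plants were grown to the 2-leaf stage. After 13 to 15 days in a greenhouse, injury was visually rated 0–100 against untreated controls.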

giant foxtail [1] = assay: Test B pre-/postemergence herbicide test; assay type: in vivo, Setaria faberi
How it was run: as §2

barnyardgrass [2] = assay: Test B pre-/postemergence herbicide test; assay type: in vivo, Echinochloa crus-galli
How it was run: (§3)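 Visual rating, 0 (no effect) to 100 (complete control), versus untreated controls after 13–15 d in greenhouse. Pre- and postemergence applications (postemergence plants 2–18 cm, 1–4 leaves); flooded paddy arm at 2-leaf stage. Compounds in non-phytotoxic solvent plus surfactant.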

barnyardgrass [3] = assay: Test B flooded paddy test; assay type: in vivo, Echinochloa crus-galli; conditions: 1000 g ai/ha, visual rating, scale 0 to 100 (0 no effect, 100 complete control), 13 to 15 days
How it was run: as §1

[4] = test system: small flower umbrella sedge; assay: Test B flooded paddy test; assay type: in vivo, Cyperus difformis; conditions: 1000 g ai/ha, visual rating, scale 0 to 100 (0 no effect, 100 complete control), 13 to 15 days
How it was run: as §1

corn = assay: Test B pre-/postemergence herbicide test; assay type: in vivo, Zea mays
How it was run: as §2

velvetleaf [5] = assay: Test B pre-/postemergence herbicide test; assay type: in vivo, Abutilon theophrasti
How it was run: as §2

barnyardgrass [6] = assay: Test A pre-/postemergence herbicide test; assay type: in vivo, Echinochloa crus-galli; conditions: for Plant response rating, Barnyardgrass: Postemergence; for Barnyardgrass plant response rating: Preemergence
How it was run: (§4)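 Both application timings were run together: directed soil spray over freshly planted seeds in sandy loam, and runoff spray onto 2–10 cm seedlings. Evaluation after ~10 days in greenhouse used a 0–100 visual scale versus untreated controls.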

wheat = assay: Test B postemergence herbicide test; assay type: in vivo, Triticum aestivum; design: key to Wheat plant response rating: 0 = no effect, 100 = complete control; conditions: scale 0 (no effect) to 100 (complete control)
How it was run: (§5)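 After treating 2-leaf paddy plants or 2–18 cm postemergence plants (1 to 4 leaves) with formulated chemical, researchers kept them in a greenhouse for 13–15 days. Effects were judged visually versus controls: 0 indicates none, 100 total control.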

large crabgrass [7] = assay: Test B pre-/postemergence herbicide test; assay type: in vivo, Digitaria sanguinalis
How it was run: as §2

pigweed = assay: Test B pre-/postemergence herbicide test; assay type: in vivo, Amaranthus retroflexus
How it was run: as §2

giant foxtail [8] = assay: Test A pre-/postemergence herbicide test; assay type: in vivo, Setaria faberi; conditions: for Plant response rating, Foxtail, Giant: Postemergence; for Foxtail, Giant plant response rating: Preemergence
How it was run: as §4

ducksalad = assay: Test B flooded paddy test; assay type: in vivo, Heteranthera limosa; conditions: 1000 g ai/ha, visual rating, scale 0 to 100 (0 no effect, 100 complete control), 13 to 15 days
How it was run: as §1

cocklebur = assay: Test B pre-/postemergence herbicide test; assay type: in vivo, Xanthium strumarium
How it was run: as §3

morningglory [9] = assay: Test A pre-/postemergence herbicide test; assay type: in vivo, Ipomoea spp.; conditions: for Plant response rating, Morningglory: Postemergence; for Morningglory plant response rating: Preemergence
How it was run: as §4

lambsquarters = assay: Test B pre-/postemergence herbicide test; assay type: in vivo, Chenopodium album; conditions: scale 0 (no effect) to 100 (complete control)
How it was run: as §2

rice [10] = assay: Test B flooded paddy test; assay type: in vivo, Oryza sativa; conditions: 1000 g ai/ha, visual rating, scale 0 to 100 (0 no effect, 100 complete control), 13 to 15 days
How it was run: as §1

redroot pigweed = assay: Test A pre-/postemergence herbicide test; assay type: in vivo, Amaranthus retroflexus; conditions: for Plant response rating, Pigweed: Postemergence; for Pigweed plant response rating: Preemergence
How it was run: as §4

wild oat = assay: Test B postemergence herbicide test; assay type: in vivo, Avena fatua; conditions: scale 0 (no effect) to 100 (complete control)
How it was run: as §5

morningglory [11] = assay: Test B pre-/postemergence herbicide test; assay type: in vivo, Ipomoea coccinea
How it was run: as §3

rice [12] = assay: Test B pre-/postemergence herbicide test; assay type: in vivo, Oryza sativa; conditions: preemergence, 125 g ai/ha; 0 to 100 scale, 0 is no effect, 100 is complete control
How it was run: as §2

velvetleaf [13] = assay: Test A pre-/postemergence herbicide test; assay type: in vivo, Abutilon theophrasti; conditions: for Velvetleaf plant response rating: Preemergence, visual rating, 0 to 100 scale (0 no effect, 100 complete control)
How it was run: as §4

large crabgrass [14] = assay: Test A pre-/postemergence herbicide test; assay type: in vivo, Digitaria sanguinalis; conditions: for Plant response rating, Crabgrass, Large: Postemergence; for Crabgrass, Large plant response rating: Preemergence
How it was run: as §4

[15] = Postemergence, 500 g ai/ha, visual rating after 13 to 15 days
[16] = postemergence, 125 g ai/ha, visual rating
[17] = Postemergence, 500 g ai/ha, visual rating after 13 to 15 days, scale 0 (no effect) to 100 (complete control)
[18] = postemergence, 125 g ai/ha, visual rating, scale 0 (no effect) to 100 (complete control)
[19] = preemergence, 125 g ai/ha, 0 to 100 scale, 0 is no effect, 100 is complete control
[20] = Preemergence, 500 g ai/ha, scale 0 to 100
[21] = 500 g ai/ha, 0 to 100 scale, 0 no effect, 100 complete control
[22] = 2000 g ai/ha, 0 to 100 scale, 0 no effect, 100 complete control
[23] = 500 g ai/ha, visual rating, 0 to 100 scale (0 no effect, 100 complete control)

SMILES: CCOC(=O)c1ccc(F)c(NC(=O)c2cc(C(C)(C)C)nn2CC)c1 [Compound 70]
- Plant response rating, Blackgrass (blackgrass; [15]): 20
- Blackgrass plant response rating (blackgrass; [16]): 10
- Plant response rating, Surinam Grass (Surinam grass; [17]): 20
- Surinam Grass plant response rating (Surinam grass; [18]): 20
- Plant response rating, Surinam Grass (Surinam grass; [19]): 40
- Plant response rating, Foxtail, Giant (giant foxtail [1]; [17]): 30
- Foxtail, Giant plant response rating (giant foxtail [1]; [20]): 100
- Foxtail, Giant plant response rating (giant foxtail [1]; [18]): 20
- Plant response rating, Foxtail, Giant (giant foxtail [1]; [19]): 90
- Plant response rating, Barnyardgrass (barnyardgrass [2]; [17]): 20
- Barnyardgrass plant response rating (barnyardgrass [2]; [20]): 50
- Barnyardgrass plant response rating (barnyardgrass [2]; [18]): 20
- Plant response rating, Barnyardgrass (barnyardgrass [2]; [19]): 40
- Barnyardgrass plant response rating (barnyardgrass [3]): 10
- Sedge, Umbrella plant response rating [4]: 30
- Plant response rating, Corn (corn; [17]): 20
- Corn plant response rating (corn; [20]): 20
- Corn plant response rating (corn; [18]): 20
- Plant response rating, Corn (corn; [19]): 10
- Plant response rating, Velvetleaf (velvetleaf [5]; [17]): 60
- Velvetleaf plant response rating (velvetleaf [5]; [18]): 20
- Plant response rating, Velvetleaf (velvetleaf [5]; [19]): 30
- Plant response rating, Barnyardgrass (barnyardgrass [6]; [21]): 25
- Plant response rating, Barnyardgrass (barnyardgrass [6]; [22]): 30
- Barnyardgrass plant response rating (barnyardgrass [6]; [23]): 20
- Barnyardgrass plant response rating (barnyardgrass [6]; [22]): 20
- Plant response rating, Wheat (wheat; [15]): 20
- Wheat plant response rating (wheat; [16]): 10
- Plant response rating, Crabgrass, Large (large crabgrass [7]; [17]): 20
- Crabgrass, Large plant response rating (large crabgrass [7]; [20]): 100
- Crabgrass, Large plant response rating (large crabgrass [7]; [18]): 20
- Plant response rating, Crabgrass, Large (large crabgrass [7]; [19]): 100
- Plant response rating, Pigweed (pigweed; [17]): 50
- Pigweed plant response rating (pigweed; [18]): 30
- Plant response rating, Pigweed (pigweed; [19]): 30
- Plant response rating, Foxtail, Giant (giant foxtail [8]; [21]): 20
- Plant response rating, Foxtail, Giant (giant foxtail [8]; [22]): 20
- Foxtail, Giant plant response rating (giant foxtail [8]; [23]): 40
- Foxtail, Giant plant response rating (giant foxtail [8]; [22]): 55
- Ducksalad plant response rating (ducksalad): 0
- Plant response rating, Cocklebur (cocklebur; [17]): 100
- Cocklebur plant response rating (cocklebur; [20]): 0
- Cocklebur plant response rating (cocklebur; [18]): 50
- Plant response rating, Cocklebur (cocklebur; [19]): 0
- Plant response rating, Morningglory (morningglory [9]; [21]): 25
- Plant response rating, Morningglory (morningglory [9]; [22]): 30
- Morningglory plant response rating (morningglory [9]; [23]): 20
- Morningglory plant response rating (morningglory [9]; [22]): 10
- Plant response rating, Lambsquarters (lambsquarters; [15]): 80
- Lambsquarters plant response rating (lambsquarters; [16]): 80
- Rice plant response rating (rice [10]): 10
- Plant response rating, Pigweed (redroot pigweed; [21]): 60
- Plant response rating, Pigweed (redroot pigweed; [22]): 75
- Pigweed plant response rating (redroot pigweed; [23]): 0
- Pigweed plant response rating (redroot pigweed; [22]): 5
- Plant response rating, Oat, Wild (wild oat; [15]): 20
- Oat, Wild plant response rating (wild oat; [16]): 20
- Plant response rating, Morningglory (morningglory [11]; [17]): 30
- Morningglory plant response rating (morningglory [11]; [18]): 20
- Plant response rating, Morningglory (morningglory [11]; [19]): 10
- Plant response rating, Rice (rice [12]): 0
- Plant response rating, Velvetleaf (velvetleaf [13]; Postemergence, 2000 g ai/ha, 0 to 100 scale, 0 no effect, 100 complete control): 30
- Velvetleaf plant response rating (velvetleaf [13]; 500 g ai/ha): 10
- Velvetleaf plant response rating (velvetleaf [13]; 2000 g ai/ha): 20
- Plant response rating, Crabgrass, Large (large crabgrass [14]; [21]): 25
- Plant response rating, Crabgrass, Large (large crabgrass [14]; [22]): 30
- Crabgrass, Large plant response rating (large crabgrass [14]; [23]): 35
- Crabgrass, Large plant response rating (large crabgrass [14]; [22]): 45

From patent US20060069132A1, “Azolecarboxamide herbicides” (priority 2004, published 2006)
